Laboratory results from patent publication US6416585B1, “Method for crystallizing polyols and sugars” (Vomm Chemipharma S.r.l., priority 1999, dated 2002).

Test: solubility of the crystallized granular sorbitol compared with the prior art
Format: physicochemical
Settings: sorbitol granules of Example 1 after two hours long maturation; in comparison with the prior art

solubility: definitely improved
Compound: OC[C@@H](O)[C@@H](O)[C@H](O)[C@@H](O)CO [sorbitol granules, sorbitol]
